This passage reports remaining binding results from patent publication US12275731B2, “Azaindole inhibitors of wild-type and mutant forms of LRRK2” (DANA-FARBER CANCER INSTITUTE, INC., priority 2018, dated 2025).

Holding throughout (assay): KinomeScan profiling
What all share (assay type): binding

One experiment has as its target T1, TXK (Homo sapiens, UniProt P42681).
T1 sequence (P42681 1-527): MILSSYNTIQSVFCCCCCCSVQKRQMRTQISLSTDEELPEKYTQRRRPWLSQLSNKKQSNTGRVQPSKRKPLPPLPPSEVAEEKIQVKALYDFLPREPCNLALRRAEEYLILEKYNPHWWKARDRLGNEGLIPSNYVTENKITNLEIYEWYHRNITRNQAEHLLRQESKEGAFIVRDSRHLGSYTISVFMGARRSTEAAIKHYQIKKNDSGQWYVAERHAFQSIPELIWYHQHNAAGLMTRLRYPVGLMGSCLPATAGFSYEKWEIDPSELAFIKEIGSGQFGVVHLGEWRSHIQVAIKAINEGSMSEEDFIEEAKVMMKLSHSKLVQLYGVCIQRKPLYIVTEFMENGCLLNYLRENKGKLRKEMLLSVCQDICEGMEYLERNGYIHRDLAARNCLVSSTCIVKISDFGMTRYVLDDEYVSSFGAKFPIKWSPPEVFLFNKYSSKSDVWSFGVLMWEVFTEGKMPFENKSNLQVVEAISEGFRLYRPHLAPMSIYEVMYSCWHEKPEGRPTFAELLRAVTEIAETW
The note with it: read-out: % control. The method, then:
(§1) The kinase selectivity of inventive compounds 77, 96 and 101 was evaluated by KinomeScan®. KinomeScan® analysis was performed against a near comprehensive panel of 468 kinases. The control percentage (% control) for inventive compounds at 1 μM in DMSO was determined by Equation 1: % control=(inventive compound−positive control)/(negative control−positive control)×100%, Equation 1
(§2) wherein the positive control is a compound with a % control value of 0% relative light units (RLU), and the negative control (i.e., DMSO) has % control value of 100% RLU. The enzyme selectivity in the present invention is defined as follows: inventive compounds are considered active for an enzyme when the observed % control is less than 35% (<35%).

For a further experiment, the target named is TRKC (Homo sapiens, UniProt Q16288). Conditions: read-out: % control. The protocol: as §1, §2
Chain of TRKC (Q16288 32-839): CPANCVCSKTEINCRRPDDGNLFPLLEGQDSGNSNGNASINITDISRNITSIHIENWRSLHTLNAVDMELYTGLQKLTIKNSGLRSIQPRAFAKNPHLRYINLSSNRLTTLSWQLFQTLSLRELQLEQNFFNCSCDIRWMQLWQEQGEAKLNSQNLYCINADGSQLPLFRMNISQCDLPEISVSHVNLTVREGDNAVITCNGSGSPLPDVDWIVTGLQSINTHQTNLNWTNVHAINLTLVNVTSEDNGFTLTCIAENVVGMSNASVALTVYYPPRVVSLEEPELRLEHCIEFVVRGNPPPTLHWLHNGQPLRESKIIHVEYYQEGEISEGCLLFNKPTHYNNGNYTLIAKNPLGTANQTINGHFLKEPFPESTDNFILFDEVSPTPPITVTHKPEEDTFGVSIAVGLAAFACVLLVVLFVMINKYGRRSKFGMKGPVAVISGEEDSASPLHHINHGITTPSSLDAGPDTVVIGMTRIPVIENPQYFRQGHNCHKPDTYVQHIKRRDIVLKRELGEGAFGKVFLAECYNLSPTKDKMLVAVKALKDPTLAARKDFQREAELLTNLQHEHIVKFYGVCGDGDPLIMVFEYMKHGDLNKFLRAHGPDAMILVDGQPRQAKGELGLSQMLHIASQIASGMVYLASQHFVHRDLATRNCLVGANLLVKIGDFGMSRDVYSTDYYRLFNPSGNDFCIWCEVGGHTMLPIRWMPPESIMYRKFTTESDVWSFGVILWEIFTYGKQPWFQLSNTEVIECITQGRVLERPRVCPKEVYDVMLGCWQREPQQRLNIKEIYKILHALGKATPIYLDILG
The next experiment deals with T2, CDKL2 (Homo sapiens, UniProt Q92772).
T2 sequence (Q92772 1-493): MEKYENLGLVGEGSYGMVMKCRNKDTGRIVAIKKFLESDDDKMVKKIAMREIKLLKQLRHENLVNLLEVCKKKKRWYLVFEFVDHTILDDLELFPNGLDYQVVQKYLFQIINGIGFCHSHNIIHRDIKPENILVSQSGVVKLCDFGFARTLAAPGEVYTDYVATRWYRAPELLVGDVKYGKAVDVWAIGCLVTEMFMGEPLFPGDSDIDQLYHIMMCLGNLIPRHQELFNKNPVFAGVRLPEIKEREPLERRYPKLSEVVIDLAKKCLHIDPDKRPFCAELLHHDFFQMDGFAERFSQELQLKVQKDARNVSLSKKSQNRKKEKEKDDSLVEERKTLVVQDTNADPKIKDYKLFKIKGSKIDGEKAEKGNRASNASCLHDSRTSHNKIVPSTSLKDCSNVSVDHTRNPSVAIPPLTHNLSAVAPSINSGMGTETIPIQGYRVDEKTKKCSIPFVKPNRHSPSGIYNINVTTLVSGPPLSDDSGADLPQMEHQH
Conditions: CDKL2, 1 μM; read-out: % control. The protocol: as §1, §2

The target in another experiment is T3, CSF1R-autoinhibited (Homo sapiens, UniProt P07333).
T3 sequence (P07333 539-972 limits assumed): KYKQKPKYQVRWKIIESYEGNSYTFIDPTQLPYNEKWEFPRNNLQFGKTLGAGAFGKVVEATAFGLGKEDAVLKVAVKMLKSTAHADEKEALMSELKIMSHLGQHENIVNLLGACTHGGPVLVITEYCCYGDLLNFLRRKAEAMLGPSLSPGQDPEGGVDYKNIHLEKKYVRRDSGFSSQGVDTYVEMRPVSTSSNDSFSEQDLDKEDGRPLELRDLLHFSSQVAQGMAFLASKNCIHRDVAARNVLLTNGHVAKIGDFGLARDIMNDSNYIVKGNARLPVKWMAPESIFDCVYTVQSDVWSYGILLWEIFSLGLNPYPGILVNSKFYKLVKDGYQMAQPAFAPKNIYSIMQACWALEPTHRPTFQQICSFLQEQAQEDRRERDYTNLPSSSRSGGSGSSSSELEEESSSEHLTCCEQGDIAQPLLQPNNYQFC
Conditions: read-out: % control. The protocol: as §1, §2

The target in the next experiment is T4, HASPIN (Homo sapiens, UniProt Q8TF76).
T4 sequence (Q8TF76 1-798): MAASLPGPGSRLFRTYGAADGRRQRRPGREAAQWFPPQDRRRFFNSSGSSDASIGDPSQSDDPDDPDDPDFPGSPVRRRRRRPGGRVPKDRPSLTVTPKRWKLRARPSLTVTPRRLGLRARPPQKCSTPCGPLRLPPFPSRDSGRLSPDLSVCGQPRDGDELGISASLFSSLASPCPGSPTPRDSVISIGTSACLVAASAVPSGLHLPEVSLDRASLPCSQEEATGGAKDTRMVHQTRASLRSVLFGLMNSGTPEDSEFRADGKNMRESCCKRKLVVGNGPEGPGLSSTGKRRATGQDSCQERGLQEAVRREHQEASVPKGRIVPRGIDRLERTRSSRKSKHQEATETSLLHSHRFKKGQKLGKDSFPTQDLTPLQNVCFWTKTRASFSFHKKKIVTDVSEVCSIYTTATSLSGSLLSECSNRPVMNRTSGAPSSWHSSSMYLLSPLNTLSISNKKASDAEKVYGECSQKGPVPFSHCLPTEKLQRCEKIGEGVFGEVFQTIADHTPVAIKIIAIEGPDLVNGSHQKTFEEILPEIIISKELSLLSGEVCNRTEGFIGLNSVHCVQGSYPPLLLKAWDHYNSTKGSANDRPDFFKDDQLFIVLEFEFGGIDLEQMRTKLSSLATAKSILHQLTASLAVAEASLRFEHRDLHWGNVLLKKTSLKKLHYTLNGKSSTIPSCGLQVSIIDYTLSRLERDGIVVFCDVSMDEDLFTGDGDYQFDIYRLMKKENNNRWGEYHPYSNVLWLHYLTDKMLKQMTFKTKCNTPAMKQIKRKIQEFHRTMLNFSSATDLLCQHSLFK
The note with it: read-out: % control. The method, then:
as §1, §2

Consider `CNc1c(-c2ccc(C(=O)N3CCC(N4CCOCC4)CC3)cc2)cnc2[nH]cc(Cl)c12` [Compound 96, (4-(3-chloro-4-(methylamino)-1H-pyrrolo[2,3-b]pyridin-5-yl)phenyl)(4-morpholinopiperidin-1-yl)methanone], for which the remaining binding at 1 µM on TXK worked out at 81%; at TRKC it was 82%; on CDKL2 it was 97%; at CSF1R-autoinhibited, 49%; at HASPIN it was 1.3%.

For the molecule `O=C(c1ccc(-c2cnc3[nH]cc(Cl)c3c2NC2CCCC2)cc1)N1CCC(N2CCOCC2)CC1` [Compound 101, (4-(3-chloro-4-(cyclopentylamino)-1H-pyrrolo[2,3-b]pyridin-5-yl)phenyl)(4-morpholinopiperidin-1-yl)methanone], the remaining binding at 1 µM on TXK came to 84%; on TRKC it was 100%; on CDKL2, 100%; on CSF1R-autoinhibited it was 3.2%; at HASPIN, 22%.

Regarding `CNc1c(-c2cnn([C@H]3CCN(C(C)=O)C[C@@H]3F)c2)cnc2[nH]cc(Cl)c12` [Compound 77, 1-((3S,4S)-4-(4-(3-chloro-4-(methylamino)-1H-pyrrolo[2,3-b]pyridin-5-yl)-1H-pyrazol-1-yl)-3-fluoropiperidin-1-yl)ethan-1-one], the remaining binding at 1 µM at TXK was determined as 81%; at TRKC, 51%; on CDKL2, 95%; at CSF1R-autoinhibited, 30%; at HASPIN it was 9.8%.
